In paper PMC10152663, “SEC14-GOLD protein PATELLIN2 binds IRON-REGULATED TRANSPORTER1 linking root iron uptake to vitamin E” (Plant Physiology, 2022):

Biological target: T1, PATELLIN2 (PATL2) (Arabidopsis thaliana, UniProt Q56ZI2)
T1 construct: Strep-tagged PATL2 (full length), recombinant from E. coli
T1 sequence (Q56ZI2 2-683): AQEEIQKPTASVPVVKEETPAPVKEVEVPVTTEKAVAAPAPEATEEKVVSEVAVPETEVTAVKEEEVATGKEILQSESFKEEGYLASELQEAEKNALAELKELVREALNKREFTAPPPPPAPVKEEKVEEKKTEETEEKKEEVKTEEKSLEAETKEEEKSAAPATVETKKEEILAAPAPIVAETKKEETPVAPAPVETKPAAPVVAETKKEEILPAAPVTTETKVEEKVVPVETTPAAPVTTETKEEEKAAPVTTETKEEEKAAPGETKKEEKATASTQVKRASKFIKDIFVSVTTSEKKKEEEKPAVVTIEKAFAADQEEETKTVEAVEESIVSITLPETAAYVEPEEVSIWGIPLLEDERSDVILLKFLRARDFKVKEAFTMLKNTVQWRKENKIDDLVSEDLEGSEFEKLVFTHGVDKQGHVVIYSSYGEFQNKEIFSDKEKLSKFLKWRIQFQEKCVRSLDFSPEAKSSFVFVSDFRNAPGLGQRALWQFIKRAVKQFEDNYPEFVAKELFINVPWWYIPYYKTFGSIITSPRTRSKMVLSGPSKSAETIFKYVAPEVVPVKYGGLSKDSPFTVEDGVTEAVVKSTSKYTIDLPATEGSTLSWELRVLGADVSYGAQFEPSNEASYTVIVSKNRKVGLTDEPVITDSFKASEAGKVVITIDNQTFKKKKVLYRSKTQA
Assay: spectrofluorimetric titration of NBD fluorescence with […] purified protein
Format: binding

Kd: 86 nM
Substance: NBD-α-tocopherol [NBD-Toc]
